Laboratory results taken from US6737383B1, “Herbicidal oxadiazolidines” (priority 1999, dated 2004).

Key:
bedstraw = assay: Test B pre/postemergence bedstraw; type: in vivo, Galium aparine
Method in brief: (§1)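 Test chemicals in a non-phytotoxic solvent mixture with surfactant were sprayed preemergence onto planted seeds and postemergence onto plants 2 to 18 cm tall (1- to 4-leaf stage). After twelve to sixteen days in a greenhouse, injury was visually rated against untreated controls from 0 (no effect) to 10 (complete control).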

blackgrass = assay: Test B pre/postemergence blackgrass; type: in vivo, Alopecurus myosuroides
Method in brief: as §1

surinam grass = assay: Test B pre/postemergence surinam grass; type: in vivo, Brachiaria decumbens
Method in brief: as §1

cocklebur = assay: Test B pre/postemergence cocklebur; type: in vivo, Xanthium strumarium
Method in brief: as §1

corn = assay: Test B pre/postemergence corn; type: in vivo, Zea mays
Method in brief: as §1

crabgrass = assay: Test B pre/postemergence crabgrass; type: in vivo, Digitaria sanguinalis
Method in brief: as §1

giant foxtail = assay: Test B pre/postemergence giant foxtail; type: in vivo, Setaria faberii
Method in brief: as §1

morningglory = assay: Test B pre/postemergence morningglory; type: in vivo, Ipomoea hederacea
Method in brief: as §1

pigweed = assay: Test B pre/postemergence pigweed; type: in vivo, Amaranthus retroflexus
Method in brief: as §1

rape = assay: Test B pre/postemergence rape; type: in vivo, Brassica napus
Method in brief: as §1

soybean = assay: Test B pre/postemergence soybean; type: in vivo, Glycine max
Method in brief: as §1

sugar beet = assay: Test B pre/postemergence sugar beet; type: in vivo, Beta vulgaris
Method in brief: as §1

velvetleaf = assay: Test B pre/postemergence velvetleaf; type: in vivo, Abutilon theophrasti
Method in brief: as §1

wheat = assay: Test B pre/postemergence wheat; type: in vivo, Triticum aestivum
Method in brief: as §1

wild oat = assay: Test B pre/postemergence wild oat; type: in vivo, Avena fatua
Method in brief: as §1

purple nutsedge = assay: Test B pre/postemergence purple nutsedge; type: in vivo, Cyperus rotundus
Method in brief: as §1

[1] = Postemergence, Rate 62 g/ha, scale 0 to 10, 0 is no effect, 10 is complete control
[2] = Postemergence, Rate 125 g/ha, scale of 0 to 10 where 0 is no effect and 10 is complete control
[3] = Postemergence, Rate 500 g/ha, scale 0 (no effect) to 10 (complete control)
[4] = Preemergence, Rate 250 g/ha, scale 0 (no effect) to 10 (complete control)
[5] = Rate 62 g/ha, Preemergence, scale 0 to 10
[6] = Rate 125 g/ha, Preemergence, scale 0 to 10 (0 no effect, 10 complete control)
[7] = Rate 250 g/ha, Postemergence, scale 0 to 10, 0 is no effect, 10 is complete control
[8] = Rate 500 g/ha, Preemergence, scale 0 to 10 (0 no effect, 10 complete control)

CON=CC(C)n1c(=O)on(C(=O)N(c2ccccc2)C(C)C)c1=O (centres unmarked) [Compound 790]
Plant response rating, Bedstraw (bedstraw; [1]): 0 | Bedstraw plant response rating (bedstraw; [2]): 0 | Bedstraw plant response rating (bedstraw; [3]): 5 | Bedstraw plant response rating (bedstraw; [4]): 7 | Bedstraw plant response rating (bedstraw; [5]): 0 | Bedstraw plant response rating (bedstraw; [6]): 3 | Bedstraw plant response rating (bedstraw; [7]): 0 | Bedstraw plant response rating (bedstraw; [8]): 9 | Plant response rating, Blackgrass (blackgrass; [1]): 4 | Blackgrass plant response rating (blackgrass; [2]): 5 | Blackgrass plant response rating (blackgrass; [3]): 5 | Blackgrass plant response rating (blackgrass; [4]): 9 | Blackgrass plant response rating (blackgrass; [5]): 8 | Blackgrass plant response rating (blackgrass; [6]): 9 | Blackgrass plant response rating (blackgrass; [7]): 5 | Blackgrass plant response rating (blackgrass; [8]): 10 | Plant response rating, B. signalgrass (surinam grass; [1]): 2 | B. signalgrass plant response rating (surinam grass; [2]): 6 | B. signalgrass plant response rating (surinam grass; [4]): 9 | B. signalgrass plant response rating (surinam grass; Rate 62 g/ha, Preemergence, scale 0 (no effect) to 10 (complete control)): 8 | B. signalgrass plant response rating (surinam grass; [6]): 9 | B. signalgrass plant response rating (surinam grass; [7]): 7 | B. signalgrass plant response rating (surinam grass; Rate 500 g/ha, Postemergence, scale 0 to 10, 0 is no effect, 10 is complete control): 7 | B. signalgrass plant response rating (surinam grass; [8]): 9 | Plant response rating, Cocklebur (cocklebur; [1]): 0 | Cocklebur plant response rating (cocklebur; [2]): 0 | Cocklebur plant response rating (cocklebur; [3]): 0 | Cocklebur plant response rating (cocklebur; [4]): 10 | Cocklebur plant response rating (cocklebur; [5]): 0 | Cocklebur plant response rating (cocklebur; [6]): 0 | Cocklebur plant response rating (cocklebur; [7]): 0 | Cocklebur plant response rating (cocklebur; [8]): 10 | Plant response rating, Corn (corn; [1]): 0 | Corn plant response rating (corn; [2]): 2 | Corn plant response rating (corn; [3]): 4 | Corn plant response rating (corn; [4]): 8 | Corn plant response rating (corn; [5]): 2 | Corn plant response rating (corn; [6]): 7 | Corn plant response rating (corn; [7]): 4 | Corn plant response rating (corn; [8]): 9 | Plant response rating, Crabgrass (crabgrass; [1]): 9 | Crabgrass plant response rating (crabgrass; [3]): 9 | Crabgrass plant response rating (crabgrass; [4]): 10 | Crabgrass plant response rating (crabgrass; [5]): 10 | Crabgrass plant response rating (crabgrass; [6]): 10 | Crabgrass plant response rating (crabgrass; [7]): 9 | Crabgrass plant response rating (crabgrass; [8]): 10 | Plant response rating, Giant foxtail (giant foxtail; [1]): 9 | Giant foxtail plant response rating (giant foxtail; [2]): 9 | Giant foxtail plant response rating (giant foxtail; [3]): 8 | Giant foxtail plant response rating (giant foxtail; [4]): lo | Giant foxtail plant response rating (giant foxtail; [5]): 10 | Giant foxtail plant response rating (giant foxtail; [6]): 10 | Giant foxtail plant response rating (giant foxtail; [7]): 8 | Giant foxtail plant response rating (giant foxtail; [8]): 10 | Plant response rating, Morningglory (morningglory; [1]): 2 | Morningglory plant response rating (morningglory; [2]): 4 | Morningglory plant response rating (morningglory; [3]): 10 | Morningglory plant response rating (morningglory; [5]): 0 | Morningglory plant response rating (morningglory; [6]): 0 | Morningglory plant response rating (morningglory; [7]): 7 | Morningglory plant response rating (morningglory; [8]): 7 | Plant response rating, Redroot pigweed (pigweed; [1]): 0 | Redroot pigweed plant response rating (pigweed; [2]): 5 | Redroot pigweed plant response rating (pigweed; [3]): 5 | Redroot pigweed plant response rating (pigweed; [5]): 2 | Redroot pigweed plant response rating (pigweed; [6]): 6 | Redroot pigweed plant response rating (pigweed; [7]): 5 | Redroot pigweed plant response rating (pigweed; [8]): 10 | Plant response rating, Rape (rape; [1]): 0 | Rape plant response rating (rape; [2]): 0 | Rape plant response rating (rape; [3]): 3 | Rape plant response rating (rape; [5]): 2 | Rape plant response rating (rape; [6]): 4 | Rape plant response rating (rape; [7]): 3 | Rape plant response rating (rape; [8]): 8 | Plant response rating, Soybean (soybean; [1]): 2 | Soybean plant response rating (soybean; [3]): 4 | Soybean plant response rating (soybean; [5]): 0 | Soybean plant response rating (soybean; [6]): 0 | Soybean plant response rating (soybean; [7]): 4 | Soybean plant response rating (soybean; [8]): 2 | Plant response rating, Sugarbeets (sugar beet; [1]): 0 | Sugarbeets plant response rating (sugar beet; [3]): 7 | Sugarbeets plant response rating (sugar beet; [5]): 1 | Sugarbeets plant response rating (sugar beet; [6]): 2 | Sugarbeets plant response rating (sugar beet; [7]): 0 | Sugarbeets plant response rating (sugar beet; [8]): 7 | Plant response rating, Velvetleaf (velvetleaf; [1]): 4 | Velvetleaf plant response rating (velvetleaf; [3]): 7 | Velvetleaf plant response rating (velvetleaf; [5]): 0 | Velvetleaf plant response rating (velvetleaf; [6]): 2 | Velvetleaf plant response rating (velvetleaf; [7]): 5 | Velvetleaf plant response rating (velvetleaf; [8]): 7 | Plant response rating, Wheat (wheat; [1]): 2 | Wheat plant response rating (wheat; [3]): 5 | Wheat plant response rating (wheat; [5]): 0 | Wheat plant response rating (wheat; [6]): 2 | Wheat plant response rating (wheat; [7]): 4 | Wheat plant response rating (wheat; [8]): 9 | Plant response rating, Wild oats (wild oat; [1]): 0 | Wild oats plant response rating (wild oat; [3]): 3 | Wild oats plant response rating (wild oat; [5]): 0 | Wild oats plant response rating (wild oat; [6]): 6 | Wild oats plant response rating (wild oat; [7]): 0 | Wild oats plant response rating (wild oat; [8]): 10 | Plant response rating, Nutsedge (purple nutsedge; [1]): 0 | Nutsedge plant response rating (purple nutsedge; [2]): 0 | Nutsedge plant response rating (purple nutsedge; [3]): 7 | Nutsedge plant response rating (purple nutsedge; [5]): 0 | Nutsedge plant response rating (purple nutsedge; [6]): 0 | Nutsedge plant response rating (purple nutsedge; [7]): 5 | Nutsedge plant response rating (purple nutsedge; [8]): 0
